From patent US12691095B2, “Modulators of TNF-alpha activity” (Forward Therapeutics, Inc., priority 2024, dated 2026)

Experiments:
TNF-α [1] = biological target: T1, TNF-α (Homo sapiens, UniProt P01375); test: TNF-α Induced THP 1 dual Cellular Assay; type: cell-based; conditions: THP1 dual cell reporter cells stimulated with TNF-α, 24 hrs, secreted alkaline phosphatase (QUANTI-Blue, 620 nm)
T1 construct: purchased R&D 210-TA-020/CF
Procedure: (§1) Test articles were diluted in DMSO and serially diluted into 384 well assay plate (Corning 3765), at final concentrations ranging from […] to 0.5 nM. THP1 dual cell reporter cells were added at a final density of 10,000 cell per well in assay media [DMEM (Gibco, cat #21063-029), 10% fetal bovine serum (ExcelBio, cat #FND500), 1% Penicillin-Streptomycin (Solarbio, cat #P1400-100]. TNF-α (R&D 210-TA-020/CF) was then added to the assay plate at a final concentration of […]. This plate was then incubated for 24 hrs at 37° C. and 5% CO2. Secreted alkaline phosphatase expression was then measured using QUANTI-Blue™ (Invivogen), according to manufacturer instructions and read on an Envision microplate reader at 620 nm.
(§2) Inhibition data for test compound over a range of concentration was plotted as percentage inhibition of the test compound (100%=maximum inhibition). IC50 values were determined after correcting for background [(sample read-mean of low control)/(mean of high control-mean of low control)] whereby the low control is DMSO without stimulation and high control is DMSO with stimulation. The IC50 is defined as the concentration of test compound which produces 50% inhibition and was quantified using the 4-parameter logistic equation to fit the data.

TNF-α [2] = biological target: T1, TNF-α; test: TNF-α Induced HEK Blue Cellular Assay; type: cell-based; conditions: HEK Blue TNFα reporter cells stimulated with TNF-α, 24 hrs, secreted alkaline phosphatase (QUANTI-Blue, 620 nm)
Procedure: as §1, with “HEK Blue™ TNFα” for “THP1 dual cell”, “QUANTI- Blue™” for “QUANTI-Blue™”
as §2, with “where by” for “whereby”, “4 parameter” for “4-parameter”

T1 sequence (P01375 77-233 limits assumed): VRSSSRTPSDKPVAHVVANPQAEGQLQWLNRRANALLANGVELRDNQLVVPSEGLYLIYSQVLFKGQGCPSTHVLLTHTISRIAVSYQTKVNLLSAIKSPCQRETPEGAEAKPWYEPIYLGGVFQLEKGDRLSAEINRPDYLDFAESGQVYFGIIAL

| SMILES | IC50 (TNF-α [1]) | IC50 (TNF-α [2]) |
| --- | --- | --- |
| [2H]C([2H])([2H])N1C(=O)c2cccc(F)c2[C@H]2C[C@@H]1c1nc3cc(F)c(-c4ccc(P(C)(C)=O)nc4)cc3n12 [Example 21, (7R,14R)-11-(6-(dimethylphosphoryl)pyridin-3-yl)-1,10-difluoro-6-(methyl-d3)-6,7-dihydro-7,14-methanobenzo[f]benzo[4,5]imidazo[1,2-a][1,4]diazocin-5(14H)-one] | ≤ 100 nM |  |
| CP(C)(=O)c1ncc(-c2ccc3nc4n(c3c2)[C@@H]2C[C@H]4NC(=O)c3cccc(Cl)c32)cn1 [Example 4, (7R,14R)-1-chloro-11-(2-(dimethylphosphoryl)pyrimidin-5-yl)-6,7-dihydro-7,14-methanobenzo[f]benzo[4,5]imidazo[1,2-a][1,4]diazocin-5(14H)-one] |  | ≤ 100 nM |
| [2H]C([2H])([2H])N1C(=O)c2cccc(F)c2[C@H]2C[C@@H]1c1nc3ccc(-c4ccc(P(C)(C)=O)c(N)c4)cc3n12 [Example 24, (7R,14R)-11-(3-amino-4-(dimethylphosphoryl)phenyl)-1-fluoro-6-(methyl-d3)-6,7-dihydro-7,14-methanobenzo[f]benzo[4,5]imidazo[1,2-a][1,4]diazocin-5(14H)-one] | ≤ 100 nM |  |
| [2H]C([2H])([2H])N1C(=O)c2cccc(F)c2[C@H]2C[C@@H]1c1nc3ccc(-c4ccc(P(C)(C)=O)c(NC)c4)cc3n12 [Example 25, (7R,14R)-11-(4-(dimethylphosphoryl)-3-(methylamino)phenyl)-1-fluoro-6-(methyl-d3)-6,7-dihydro-7,14-methanobenzo[f]benzo[4,5]imidazo[1,2-a][1,4]diazocin-5(14H)-one] | ≤ 100 nM |  |
| [2H]C([2H])([2H])N1C(=O)c2cccc(Cl)c2[C@H]2C[C@@H]1c1nc3ccc(-c4ccc(P(C)(C)=O)cc4)cc3n12 [Example 7, (7R,14R)-1-chloro-11-(4-(dimethylphosphoryl)phenyl)-6-(methyl-d3)-6,7-dihydro-7,14-methanobenzo[f]benzo[4,5]imidazo[1,2-a][1,4]diazocin-5(14H)-one] |  | ≤ 100 nM |
| [2H]C([2H])([2H])N1C(=O)c2cccc(Cl)c2[C@H]2C[C@@H]1c1nc3ccc(-c4ccc(P(C)(C)=O)c(F)c4)cc3n12 [Example 1, (7R,14R)-1-chloro-11-(4-(dimethylphosphoryl)-3-fluorophenyl)-6-(methyl-d3)-6,7-dihydro-7,14-methanobenzo[f]benzo[4,5]imidazo[1,2-a][1,4]diazocin-5(14H)-one] |  | ≤ 100 nM |
| CP(C)(=O)c1ccc(-c2ccc3nc4n(c3c2)[C@@H]2C[C@H]4NC(=O)c3cccc(Cl)c32)cn1 [Example 5, (7R,14R)-1-chloro-11-(6-(dimethylphosphoryl)pyridin-3-yl)-6,7-dihydro-7,14-methanobenzo[f]benzo[4,5]imidazo[1,2-a][1,4]diazocin-5(14H)-one] |  | ≤ 100 nM |
| [2H]C([2H])([2H])C([2H])([2H])N1C(=O)c2cccc(Cl)c2[C@H]2C[C@@H]1c1nc3ccc(-c4ccc(P(C)(C)=O)c(F)c4)cc3n12 [Example 10, (7R,14R)-1-chloro-11-(4-(dimethylphosphoryl)-3-fluorophenyl)-6-(ethyl-d5)-6,7-dihydro-7,14-methanobenzo[f]benzo[4,5]imidazo[1,2-a][1,4]diazocin-5(14H)-one] |  | ≤ 100 nM |
| [2H]C([2H])([2H])N1C(=O)c2cccc(F)c2[C@H]2C[C@@H]1c1nc3cc(F)c(-c4ccc(P(C)(C)=O)c(F)c4)cc3n12 [Example 23, (7R,14R)-11-(4-(dimethylphosphoryl)-3-fluorophenyl)-1,10-difluoro-6-(methyl-d3)-6,7-dihydro-7,14-methanobenzo[f]benzo[4,5]imidazo[1,2-a][1,4]diazocin-5(14H)-one] | ≤ 100 nM |  |
| [2H]C([2H])([2H])N1C(=O)c2cccc(F)c2[C@H]2C[C@@H]1c1nc3ccc(-c4ccc(P(C)(C)=O)cc4)cc3n12 [Example 16, (7R,14R)-11-(4-(dimethylphosphoryl)phenyl)-1-fluoro-6-(methyl-d3)-6,7-dihydro-7,14-methanobenzo[f]benzo[4,5]imidazo[1,2-a][1,4]diazocin-5(14H)-one] | ≤ 100 nM |  |
| [2H]C([2H])([2H])N1C(=O)c2cccc(F)c2[C@H]2C[C@@H]1c1nc3ccc(-c4ccc(P(C)(C)=O)cc4F)cc3n12 [Example 17, (7R,14R)-11-(4-(dimethylphosphoryl)-2-fluorophenyl)-1-fluoro-6-(methyl-d3)-6,7-dihydro-7,14-methanobenzo[f]benzo[4,5]imidazo[1,2-a][1,4]diazocin-5(14H)-one] | ≤ 100 nM |  |
| [2H]C([2H])([2H])N1C(=O)c2ccc(F)c(F)c2[C@H]2C[C@@H]1c1nc3ccc(-c4ccc(P(C)(C)=O)c(F)c4)cc3n12 [Example 15, (7R,14R)-11-(4-(dimethylphosphoryl)-3-fluorophenyl)-1,2-difluoro-6-(methyl-d3)-6,7-dihydro-7,14-methanobenzo[f]benzo[4,5]imidazo[1,2-a][1,4]diazocin-5(14H)-one] | ≤ 100 nM |  |
| [2H]C([2H])([2H])N1C(=O)c2cccc(F)c2[C@H]2C[C@@H]1c1nc3ccc(-c4ccc(P(C)(C)=O)c(F)c4F)cc3n12 [Example 14, (7R,14R)-11-(4-(dimethylphosphoryl)-2,3-difluorophenyl)-1-fluoro-6-(methyl-d3)-6,7-dihydro-7,14-methanobenzo[f]benzo[4,5]imidazo[1,2-a][1,4]diazocin-5(14H)-one] | ≤ 100 nM |  |
| [2H]C([2H])([2H])N1C(=O)c2cccc(Br)c2[C@H]2C[C@@H]1c1nc3ccc(-c4ccc(P(C)(C)=O)c(F)c4)cc3n12 [Example 18, (7R,14R)-1-bromo-11-(4-(dimethylphosphoryl)-3-fluorophenyl)-6-(methyl-d3)-6,7-dihydro-7,14-methanobenzo[f]benzo[4,5]imidazo[1,2-a][1,4]diazocin-5(14H)-one] | ≤ 100 nM |  |
| [2H]C([2H])([2H])N1C(=O)c2cc(F)cc(F)c2[C@H]2C[C@@H]1c1nc3ccc(-c4ccc(P(C)(C)=O)c(F)c4)cc3n12 [Example 13, (7R,14R)-11-(4-(dimethylphosphoryl)-3-fluorophenyl)-1,3-difluoro-6-(methyl-d3)-6,7-dihydro-7,14-methanobenzo[f]benzo[4,5]imidazo[1,2-a][1,4]diazocin-5(14H)-one] | ≤ 100 nM |  |
| [2H]C([2H])([2H])N1C(=O)c2cccc(Br)c2[C@H]2C[C@@H]1c1nc3ccc(-c4ccc(P(C)(C)=O)cc4F)cc3n12 [Example 19, (7R,14R)-1-bromo-11-(4-(dimethylphosphoryl)-2-fluorophenyl)-6-(methyl-d3)-6,7-dihydro-7,14-methanobenzo[f]benzo[4,5]imidazo[1,2-a][1,4]diazocin-5(14H)-one] | ≤ 100 nM |  |
| [2H]C([2H])([2H])N1C(=O)c2cccc(F)c2[C@H]2C[C@]1(C)c1nc3ccc(-c4ccc(P(C)(C)=O)c(F)c4)cc3n12 [Example 22, (7R,14R)-11-(4-(dimethylphosphoryl)-3-fluorophenyl)-1-fluoro-7-methyl-6-(methyl-d3)-6,7-dihydro-7,14-methanobenzo[f]benzo[4,5]imidazo[1,2-a][1,4]diazocin-5(14H)-one] | ≤ 100 nM |  |
| [2H]C([2H])([2H])N1C(=O)c2cccc(F)c2[C@H]2C[C@@H]1c1nc3cc(F)c(-c4ccc(P(C)(C)=O)cc4)cc3n12 [Example 20, (7R,14R)-11-(4-(dimethylphosphoryl)phenyl)-1,10-difluoro-6-(methyl-d3)-6,7-dihydro-7,14-methanobenzo[f]benzo[4,5]imidazo[1,2-a][1,4]diazocin-5(14H)-one] | ≤ 100 nM |  |
